{"source": "patent US20090042988A1", "about": "“PHARMACEUTICAL COMPOSITIONS CONTAINING A MEGLITINIDE COMPOUND FOR PREVENTING HEPATIC FIBROSIS” (KURUME UNIVERSITY, priority 2006, published 2009)", "key": {"ATP-citrate lyase": {"test_system": "ATP-citrate lyase", "conditions": "nateglinide administered before glucose load; diabetic model animal; cited from earlier work"}, "[1]": {"conditions": "twelve-week administration; 53 fatty liver cases with diabetes or 5 cases where GPT>GOT; cited from earlier work"}, "fatty liver": {"test_system": "fatty liver", "test": "Degree of fatty liver by liver/spleen ratio of CT in NASH patients with diabetes given nateglinide", "type": "in vivo", "text": "5 patients were selected as the subjects, who had clinical features of fatty liver found by the abdominal ultrasound or the abdominal CT, had negative test results in various virus markers and autoantibody, could deny a drinking history or a drug history; were diagnosed as NASH by a liver biopsy based on Brunt's scale (Am J Gastroenterol. 1999 94: 2467-2474), and had diabetes on which diet and exercise therapies could not sufficiently produce the therapeutic effect. […] Am J Gastroenterol. 1999 94: 2467-2474)."}, "liver biopsy tissues [2]": {"test_system": "liver biopsy tissues", "test": "Histological scoring of liver biopsy tissues (Brunt's scale) in NASH patients with diabetes given nateglinide;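 also: patients dosed orally with 90 mg thrice daily ahead of meals over 16 weeks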", "description": "Meanwhile, the degree of hepatic fibrosis herein mentioned is evaluated by the steps comprising of treating the tissue section of liver biopsy samples with the method of specifically staining the fibrillary element such as Masson's trichrome stain, Sweet's reticulin stain or Azan stain; and then determining the quantity thereof per distinctive fibrosis images or evaluating them as stages. As one example, since hepatocellular necrosis or degeneration in NASH often occurs in areas of zone 3, the portal fibrosis is evaluated corresponding to the degree thereof on a scale of 0 to 4 when pericellular fibrosis, perivenular fibrosis or pathology of the region corresponding to the areas of zone 3 is advanced. Further, the degree is comprehensively classified as: Stage 1: perivascular/perisinusoidal/pericellular fibrosis partially or widely exists centering on zone 3; Stage 2: portal fibrosis partially or widely exists in addition to Stage 1; Stage 3: bridging fibrosis partially or widely exists; and Stage 4: cirrhosis.\nHepatocellular degeneration is determined as ballooning of hepatocytes after treating the section of liver biopsy tissues with hematoxylin-eosin staining. Hepatocellular degeneration is evaluated based on the number of the cells observed in the visual field (Non-patent Literature 11)."}, "liver biopsy tissues [3]": {"test_system": "liver biopsy tissues", "conditions": "16 weeks, 5 patients with diabetes diagnosed as NASH (Non-patent Literature 10); cited from earlier work"}, "[4]": {"test": "Diabetic indexes (HbA1c, fasting blood glucose, blood glucose 2 hours after glucose tolerance test) in NASH patients with diabetes given nateglinide", "type": "in vivo", "conditions": "per patient, Case 1-5", "method": "In 0th week and 12th week or 16 week, as the diabetic indexes, the fasting blood glucose, the blood glucose 2 hours after the glucose tolerance test, and hemoglobin A1c, as the evaluation of the liver, the degree of fatty liver determined by liver/spleen ratio of CT and liver biopsy tissues for each case were histologically analyzed to score hepatocellular degeneration, pericellular fibrosis, perivenular fibrosis, portal fibrosis or the like (Brunt E M et al. Am J Gastroenterol. 1999 94: 2467-2474)."}, "[5]": {"conditions": "Δ: value before admin. − value after admin., per patient, Case 1-5"}, "[6]": {"conditions": "after nateglinide administration, Brunt score, per patient, Case 1-5"}, "[7]": {"conditions": "after nateglinide administration, score, per patient, Case 1-5"}, "[8]": {"conditions": "after nateglinide 90 mg orally three times per day (12th or 16th week)"}, "[9]": {"conditions": "Δ: value before admin. − value after admin., 0th and 12th weeks"}}, "note": "Several values for one entry are separate records, joined by “and”; a condition that tells them apart may be missing. Equal values may be shown once. Entries after “also recorded” stand apart in the source; their conditions may differ."}
{"smiles": "CC(C)[C@H]1CC[C@H](C(=O)N[C@H](Cc2ccccc2)C(=O)O)CC1", "note": "[nateglinide, (−)-N-(trans-4-isopropylcyclohexanecarbonyl)-D-phenylalanine]", "values": [{"measurement": "glucose-induced expression of ATP-citrate lyase in the liver", "setting": "ATP-citrate lyase", "value": "inhibits glucose-induced expression of ATP-citrate lyase"}, {"measurement": "GOT and GPT (index of hepatic injury)", "setting": "[1]", "value": "statistically significantly inhibits GOT and GPT"}, {"measurement": "CT score liver/spleen ratio", "setting": "fatty liver; after nateglinide administration, per patient, Case 1-5", "value": "1 and 0.9 and 0.95 and 0.8 and 1.05"}, {"measurement": "improvement effect on fatty liver", "setting": "fatty liver; cases whose diabetic indexes were not improved", "value": "an improvement effect on fatty liver was low"}, {"measurement": "Δ CT score liver/spleen ratio", "setting": "fatty liver; [5]", "value": "−0.09 and −0.335 and −0.06 and −0.2 and −0.25"}, {"measurement": "grade", "setting": "liver biopsy tissues [2]; [6]", "value": "1 (2×) and 2 (2×) and 1.5"}, {"measurement": "stage", "setting": "liver biopsy tissues [2]; [6]", "value": "2 (2×) and 1 (2×) and 1.5"}, {"measurement": "hepatocellular degeneration", "setting": "liver biopsy tissues [2]; [7]", "value": "1 (4×) and 2"}, {"measurement": "pericellular fibrosis", "setting": "liver biopsy tissues [2]; [7]", "value": "1 (4×) and 0"}, {"measurement": "perivenular fibrosis", "setting": "liver biopsy tissues [2]; [7]", "value": "1 (4×) and 2"}, {"measurement": "portal area neutrophil infiltration", "setting": "liver biopsy tissues [2]; [7]", "value": "0 (3×) and 1 (2×)"}, {"measurement": "portal fibrosis", "setting": "liver biopsy tissues [2]; [7]", "value": "2 (2×) and 1 and 1.5 and 0.5"}, {"measurement": "portal vein inflammation", "setting": "liver biopsy tissues [2]; [7]", "value": "0 (4×) and 1"}, {"measurement": "improvement of fatty liver, hepatocellular degeneration, pericellular fibrosis, perivenular fibrosis or portal fibrosis", "setting": "liver biopsy tissues [2]; cases whose diabetic indexes were improved by nateglinide", "value": "improvements were also observed"}, {"measurement": "improvement of hepatocellular degeneration, pericellular fibrosis, perivenular fibrosis or portal fibrosis", "setting": "liver biopsy tissues [2]; cases whose diabetic indexes were not improved (Cases 1 and 3)", "value": "hepatic inflammation, degeneration or fibrosis thereof was improved; also recorded: almost the same improvements were observed"}, {"measurement": "Δ grade", "setting": "liver biopsy tissues [2]; [5]", "value": "1 (3×) and 0.5 and 0"}, {"measurement": "Δ hepatocellular degeneration", "setting": "liver biopsy tissues [2]; [5]", "value": "1 (3×) and 0 and 2"}, {"measurement": "Δ pericellular fibrosis", "setting": "liver biopsy tissues [2]; [5]", "value": "2 (2×) and 1 (3×)"}, {"measurement": "Δ perivenular fibrosis", "setting": "liver biopsy tissues [2]; [5]", "value": 1}, {"measurement": "Δ portal area neutrophil infiltration", "setting": "liver biopsy tissues [2]; [5]", "value": "0 (3×) and 1 (2×)"}, {"measurement": "Δ portal fibrosis", "setting": "liver biopsy tissues [2]; [5]", "value": "1 (2×) and 0.5 (2×) and 0"}, {"measurement": "Δ portal vein inflammation", "setting": "liver biopsy tissues [2]; [5]", "value": "1 (4×) and 2"}, {"measurement": "Δ stage", "setting": "liver biopsy tissues [2]; [5]", "value": "1 (2×) and 0 (2×) and 0.5"}, {"measurement": "fatty liver, hepatic inflammation, hepatic degeneration, hepatic fibrosis by liver biopsies before and after administration", "setting": "liver biopsy tissues [3]", "value": "the fatty liver diminished, and hepatic inflammation, hepatic degeneration or hepatic fibrosis was improved"}, {"measurement": "BG 2 hrs. (blood glucose 2 hours after the glucose tolerance test)", "setting": "[4]; [8]", "value": "199 mg/dL and 105 mg/dL and 238 mg/dL and 337 mg/dL and 118 mg/dL"}, {"measurement": "fasting blood glucose", "setting": "[4]; [8]", "value": "106 mg/dL and 119 mg/dL and 115 mg/dL and 163 mg/dL and 100 mg/dL"}, {"measurement": "HbA1c", "setting": "[4]; after nateglinide 90 mg orally three times per day before each meal (12th or 16th week)", "value": "5.5% and 5.6% and 6.2% and 7.1% and 5%"}, {"measurement": "Δ BG 2 hrs. (blood glucose 2 hours after the glucose tolerance test)", "setting": "[4]; [9]", "value": "17 mg/dL and 89 mg/dL and 30 mg/dL and 88 mg/dL and 48 mg/dL"}, {"measurement": "Δ HbA1c", "setting": "[4]; [9]", "value": "0.1% (2×) and −0.1% and 0.5% and 0.8%"}, {"measurement": "Δ fasting blood glucose", "setting": "[4]; [9]", "value": "20 mg/dL and -6 mg/dL and -5 mg/dL and 7 mg/dL and 39 mg/dL"}]}
